According to paper PMC8474116, “Discovery of Novel Acetamide-Based Heme Oxygenase-1 Inhibitors with Potent In Vitro Antiproliferative Activity” (Journal of Medicinal Chemistry, 2021):

How the values were obtained:
HO-1 = molecular target: T1, HO-1 (Rattus norvegicus, UniProt P06762); assay: HO-1 enzymatic activity, rat spleen microsomal fraction (bilirubin formation); type: biochemical; conditions: for IC50: rat spleen microsomal fraction, mean of triplicate ± SD; for SI (HO-2/HO-1): ratio of HO-2 and HO-1 IC50
T1 construct: selected to use the most native (i.e., closest to in vivo) forms of HO-1 and HO-2; from tissue; host or cells: rat spleen (male Sprague-Dawley), microsomal fraction
T1 sequence (P06762 1-289): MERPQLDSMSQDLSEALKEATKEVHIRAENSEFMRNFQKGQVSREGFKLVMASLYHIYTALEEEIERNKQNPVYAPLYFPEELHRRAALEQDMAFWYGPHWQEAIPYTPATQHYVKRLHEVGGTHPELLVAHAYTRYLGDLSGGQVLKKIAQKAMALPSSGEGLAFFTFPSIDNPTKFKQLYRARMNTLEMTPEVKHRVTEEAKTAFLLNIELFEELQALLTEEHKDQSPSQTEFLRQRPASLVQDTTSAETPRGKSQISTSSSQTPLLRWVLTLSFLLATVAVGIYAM
Method: (§1) HO-1 and HO-2 were obtained, respectively, from the rat spleen and brain as the microsomal fraction prepared by differential centrifugation; the dominance of HO-1 protein in the rat spleen and HO-2 in the rat brain has been well documented.[24] These particular microsomal preparations were selected to use the most native (i.e., closest to in vivo) forms of HO-1 and HO-2. Spleen and brain (Sprague-Dawley rats) microsomal fractions were prepared according to the procedure outlined by Ryter et al.[2] The experiments reported in the present paper complied with the current Italian law and met the guidelines of the Institutional Animal Care and Use Committee of the Ministry of Health (Directorate General for Animal Health and Veterinary Medicines, Italy) “Dosing of enzymatic activities in rat microsomes” (2018–2022), project code 02769.N.VLY. The experiments were performed in male Sprague-Dawley albino rats (150 g body weight and age 45 d). They had free access to water and were kept at room temperature with a natural photoperiod (12 h light–12 h dark cycle). For measuring HO-1 and HO-2 activities, each rat was sacrificed and their spleen and brain were excised and weighed. A homogenate (15%, w/v) of spleens and brains pooled from four rats was prepared in ice-cold HO-homogenizing buffer (50 mM Tris buffer, pH 7.4, containing 0.25 M sucrose) using a Potter–Elvehjem homogenizing system with a Teflon pestle. The microsomal fraction of rat spleen and brain homogenate was obtained by centrifugation at 10 000g for 20 min at 4 °C, followed by centrifugation of the supernatant at 100 000g for 60 min at 4 °C. The 100 000g pellet (microsomes) was resuspended in 100 mM of potassium phosphate buffer, pH 7.8, containing 2 mM MgCl2 with a Potter–Elvehjem homogenizing system. The rat spleen and brain microsomal fractions were divided into equal aliquots, placed into microcentrifuge tubes, and stored at −80 °C for up to 2 months.
(§2) Liver cytosol has been used as a source of biliverdin reductase. Rat liver was perfused through the hepatic portal vein with cold 0.9% NaCl; then, it was cut and flushed with 2 × 20 mL of ice-cold PBS to remove all of the blood. Liver tissue was homogenized in 3 volumes of a solution containing 1.15% KCl w/v and Tris buffer 20 mM, pH 7.8 on ice. Homogenates were centrifuged at 10 000g for 20 min at 4 °C. The supernatant was decanted and centrifuged at 100 000g for 1 h at 4 °C to sediment the microsomes. The 100 000g supernatant was saved and then stored in small amounts at −80 °C after its protein concentration was measured.
(§3) The HO-1 and HO-2 activities were determined by measuring the bilirubin formation using the difference in absorbance at 464–530 nm, as described by Ryter et al.[2] Reaction mixtures (500 μL) consisted of 20 mM of Tris–HCl, pH 7.4, (1 mg/mL) microsomal extract, 0.5–2 mg/mL of biliverdin reductase, 1 mM of NADPH, 2 mM of glucose 6-phosphate (G6P), 1 U of G6P dehydrogenase, 25 μM of hemin, and 10 μL of DMSO (or the same volume of DMSO solution of test compounds to a final concentration of 100, 10, and 1 μM). Incubations were carried out for 60 min at 37 °C in a circulating water bath in the dark. Reactions were stopped by adding the same volume of chloroform. After recovering the chloroform phase, the amount of bilirubin formed was measured with a double-beam spectrophotometer as OD464–530 nm (extinction coefficient, 40 mM/cm^–1 for bilirubin). One unit of the enzyme was defined as the amount of enzyme catalyzing the formation of 1 nmol of bilirubin/mg protein/h.

HO-2 = molecular target: T2, HO-2 (Rattus norvegicus, UniProt P23711); assay: HO-2 enzymatic activity, rat brain microsomal fraction (bilirubin formation); type: biochemical; conditions: mean of triplicate ± SD
T2 construct: selected to use the most native (i.e., closest to in vivo) forms of HO-1 and HO-2; from tissue; host or cells: rat brain (male Sprague-Dawley), microsomal fraction
T2 sequence (P23711 1-315): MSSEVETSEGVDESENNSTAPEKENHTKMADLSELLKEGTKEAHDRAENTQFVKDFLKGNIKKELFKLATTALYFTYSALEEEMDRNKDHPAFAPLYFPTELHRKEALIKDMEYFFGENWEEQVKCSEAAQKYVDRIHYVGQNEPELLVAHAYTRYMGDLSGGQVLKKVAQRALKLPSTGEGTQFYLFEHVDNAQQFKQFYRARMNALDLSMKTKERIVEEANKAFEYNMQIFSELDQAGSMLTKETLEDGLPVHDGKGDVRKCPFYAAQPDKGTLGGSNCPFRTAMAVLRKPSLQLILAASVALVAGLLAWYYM
Method: as §1, §2, §3

U87MG cells = assay: MTT cell viability assay, U87MG; type: cell-based, human; conditions: 48 h
Method: (§4) Experiments were performed on human GBM cell lines U87MG (ATCCC number #HTB-14) and A172 (ATCCC #CRL-1620) on DU145 (ATCC HTB-81) and human lung adenocarcinoma A549 (ATCC CCL-185-LUC2). All cell lines were obtained from the American Type Culture Collection (ATCC, Rockville, MD). Cells were grown in Dulbecco’s modified Eagle’s medium (DMEM) supplemented with 10% of heat-inactivated fetal bovine serum (FBS), 100 U/mL of penicillin, and 100 μg/mL of streptomycin (Sigma-Aldrich, Steinheim, Germany). Cells were incubated at 37 °C in a humidified atmosphere with 5% CO2.
(§5) The effect of selected compounds 7i and 7l–p on cell viability was assessed by performing an MTT assay. Cells were seeded into 96-well plates at a density of 7 × 10^3 cells/well in 100 μL of culture medium. After 24 h, cells were treated with selected compounds at three different concentrations (1 μM, 10 μM, and 50 μM) for 48 h. Following treatments, 0.5 mg/mL of 3-[4,5-dimethylthiazol-2-yl]-2,5-diphenyltetrazolium bromide (MTT) (Sigma-Aldrich) was added to each well and incubated for 4 h at 37 °C. Finally, dimethyl-sulfoxide (DMSO) was used to dissolve formazan salts, and absorbance was measured at 570 nm in a microplate reader (Biotek Synergy-HT). Eight replicate wells were used for each group.

A172 cells = assay: MTT cell viability assay, A172; type: cell-based, human; conditions: 48 h
Method: as §4, §5

[1] = all tested concentrations (1, 10, 50 μM)
[2] = at both concentrations 1 and 10 μM

Row | IC50 (HO-1) [nM] | SI (HO-2/HO-1) (HO-1) | IC50 (HO-2) [nM] | fold more selective for the inducible isoform (HO-1 over HO-2) (HO-1) | melting point [°C] | SMILES | HO-1 vs HO-2 selectivity (in words) (HO-1) | cell viability reduction (U87MG cells; at all of the tested concentrations (1, 10, 50 μM)) | cell viability reduction (in words) (A172 cells; [1]) | cell viability reduction (U87MG cells; [2]) | cell viability reduction (in words) (A172 cells; 10 μM) | cell viability reduction (in words) (A172 cells; 50 μM)
1 | 950 ± 90 | 48.3 | 45900 ± 1670 | about 48 fold | 69 to 71 | CN(C(=O)Cn1ccnc1)C(c1ccccc1)c1ccc(I)cc1 (stereo not drawn) [7n, 2-(1H-Imidazol-1-yl)-N-((4-iodophenyl)(phenyl)methyl)-N-methylacetamide] | – | – | – | more than 30% | milder activity | only at 50 μM
2 | 1200 ± 110 | 9.3 | 11200 ± 180 | 9 fold | 119 to 121 | CN(C(=O)Cn1ccnc1)C(c1ccccc1)c1ccc(OCc2ccccc2)cc1 (stereo not drawn) [7o, N-((4-(Benzyloxy)phenyl)(phenyl)methyl)-2-(1H-imidazol-1-yl)-N-methylacetamide] | – | – | remarkable reduction of cell viability | around 20% | – | –

Row | SMILES | IC50 (HO-1) [nM] | SI (HO-2/HO-1) (HO-1) | IC50 (HO-2) [nM] | fold more selective for the inducible isoform (HO-1 over HO-2) (HO-1) | melting point [°C] | HO-1 vs HO-2 selectivity (in words) (HO-1) | cell viability reduction (U87MG cells; at all of the tested concentrations (1, 10, 50 μM)) | cell viability reduction (in words) (A172 cells; [1]) | cell viability reduction (U87MG cells; [2]) | cell viability reduction (in words) (A172 cells; 10 μM) | cell viability reduction (in words) (A172 cells; 50 μM)
3 | CN(C(=O)Cn1ccnc1)C(c1ccccc1)c1ccc(Cl)cc1 (stereo not drawn) [7l, N-((4-Chlorophenyl)(phenyl)methyl)-2-(1H-imidazol-1-yl)-N-methylacetamide] | 950 ± 40 | 1.3 | 1200 ± 70 | – | – | superimposable HO-1 and HO-2 IC50 values | more than 60% | remarkable reduction of cell viability | – | – | –
